Laboratory results taken from US20240317683A1, “METHODS OF TREATING MOOD DISORDERS” (priority 2020, published 2024).
Entries after “also recorded” stand apart in the source; their conditions may differ. Where a name gives a salt, the structure may show the parent alone.

Legend:
CYP2C9 = CYP2C9 (Homo sapiens (Human), UniProt P11712); experiment: CYP inhibition in human liver microsomes, CYP2C9; format: in vitro ADME; conditions: for inhibition at 10 min, 10 µM: both sexes, human, pooled human liver microsomes, pH 7.4, probe diclofenac (5 μM), HLM, diclofenac substrate, read-out: CYP 2C9 % Inhibition at 10 μM
C57BL/6 mice [1] = experiment: Marble burying test (MBT) in mice; format: in vivo; conditions: SC, 30 minutes prior, 30-minute period, vs. vehicle
Procedure: Animals. Adult male C57BL/6 mice, aged 8-10 weeks (body weight 20-25 g), were used in these experiments. Animals were housed under controlled temperatures and 12-hour light/dark cycles (lights on between 07:00-19:00 h), with ad libitum food and water. All efforts were made to minimize suffering.
Drugs and Drug Administration. Compound 4 was prepared as described above. Desipramine HCl was commercially obtained. The test compound, vehicle, and the positive control desipramine were administered subcutaneously (SC), with doses calculated based on the freebase. Normal saline was used as the vehicle. All compounds were administered at a volume of 10 ml/kg. All treatments were administered 30 minutes prior to the start of behavioral testing. Group size was n=9-10 per treatment.
Marble Burying Test (MBT). […] Mice were handled for about 2 min daily for the 3 days prior to the beginning of the experimental procedure. Twenty glass marbles (16 mm diameter) were placed at equal distances in a 5×4 pattern on a 5-cm layer of corn-cob bedding, with marbles at least 2 cm from the borders of the cage. The total number of marbles buried were counted in three 10-minute time bins (total 30 minutes). A marble was considered buried when it was >⅔ covered by bedding material.
Statistical Analysis. The data points shown are the mean ±standard error of the mean (SEM). Analysis was performed using GraphPad Prism 6. […]

C57BL/6 mice [2] = experiment: Conditioned place preference in mice; format: in vivo; conditions: SC, abuse liability model, vs. vehicle; hydrochloride
Procedure: (§1) Animals. Male C57BL/6 mice, 5-8 weeks of age, (body weight 25-30 g; Envigo, Indianapolis, IN, USA) were housed 5 per polycarbonate tub with soft bedding in a temperature-and humidity-controlled vivarium. Mice were maintained under a 12-h light/dark cycle with lights on at 06:00. Food and water were available ad libitum. Animals acclimated to the vivarium for 1 week prior to experimental manipulations.
Drugs and Drug Administration. Compound 4 was prepared as described above. All other compounds were commercially obtained. Compound 4 and saline vehicle were administered subcutaneously (SC), with doses calculated based on the HCl salt, while the positive control oxycodone was administered intraperitoneally (IP), with the dose calculated based on the HCl salt. […]
Conditioned Place Preference. Reward and/or aversion was assessed in conditioned place preference chambers (Model MED-CPP-3013; Med Associates, St. Albans, VT). […]
Group size was n=10 per treatment. […] Final drug preference was assessed in a 15-minute post-conditioning trial and was calculated by subtracting the time in the drug-paired compartment at baseline from the time in the drug-paired compartment post-conditioning, with positive values reflecting reward and negative values reflecting aversion.
For all trials, time spent in chambers as well as movement was quantified by infrared photobeam detectors and calculated by Med-PC IV software. […]

C57BL/6 mice [3] = experiment: Open field locomotor activity in mice; format: in vivo; conditions: SC
Procedure: as §1
Drugs and Drug Administration. Compound 4 was prepared as described above. Compound 4 and saline vehicle were administered subcutaneously (SC), with doses calculated based on the HCl salt. Normal saline was used as the vehicle. All compounds were administered at a volume of 10 mL/kg. Compound 4 or vehicle were administered immediately before the start of the recording session.
Locomotor Activity. Locomotor activity was measured in experimental cages (length×width x height: 560×560×330 mm) by an animal movement analysis system SCANET MV-40 ([…] Co., Ltd., Toyama, Japan). The cumulative activity was recorded for 30 minutes prior to drug administration to establish a baseline, and then animals were recorded for 60 minutes immediately after drug administration. Cages were cleaned between testing sessions.
Statistical Analysis. The total number of beam breaks were summed into 5-minute time bins. The data points shown are the mean ±standard error of the mean (SEM). […]

Chain of CYP2C9 (P11712 whole entry, looked up): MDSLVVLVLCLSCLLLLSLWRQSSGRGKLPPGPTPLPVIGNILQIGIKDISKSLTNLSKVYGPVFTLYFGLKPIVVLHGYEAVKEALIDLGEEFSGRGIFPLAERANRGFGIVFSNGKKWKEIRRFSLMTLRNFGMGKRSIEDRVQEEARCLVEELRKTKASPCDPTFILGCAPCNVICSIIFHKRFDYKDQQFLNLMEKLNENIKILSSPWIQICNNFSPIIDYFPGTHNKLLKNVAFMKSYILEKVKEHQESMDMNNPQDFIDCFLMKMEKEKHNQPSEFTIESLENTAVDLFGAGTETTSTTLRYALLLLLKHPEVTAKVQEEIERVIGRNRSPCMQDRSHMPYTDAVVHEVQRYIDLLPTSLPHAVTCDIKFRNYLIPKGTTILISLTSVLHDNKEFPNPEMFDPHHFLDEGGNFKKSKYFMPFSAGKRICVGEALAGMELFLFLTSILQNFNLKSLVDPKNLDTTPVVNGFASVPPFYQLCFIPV

| SMILES | inhibition at 10 min, 10 µM (CYP2C9) [%] | IC50 (CYP2C9) [µM] | other results |
| --- | --- | --- | --- |
| CCCN(CC)CCc1c[nH]c2ccccc12 [Compound 1, ethylpropyltryptamine] | 0.1 | – | – |
| CCN(C)CCc1c[nH]c2ccccc12 [Compound 2, methylethyltryptamine] | 0 | > 50 | – |
| CCCN(CC)CCc1c[nH]c2ccc(F)cc12 [Compound 3, N-ethyl-N-(2-(5-fluoro-1H-indol-3-yl)ethyl) propan-1-amine hydrochloride] | – | > 50 | – |
| CCN(C)CCc1c[nH]c2ccc(F)cc12 [Compound 4, N-ethyl-2-(5-fluoro-1H-indol-3-yl)-N-methylethan-1-amine hydrochloride] | – | > 50 | number of marbles buried (C57BL/6 mice [1]): dose-dependent reduction; preference for the drug-paired compartment (C57BL/6 mice [2]): did not induce any significant preference; also recorded: not significantly different from vehicle; total locomotor activity in the open field (C57BL/6 mice [3]; 60 minutes after administration): dose-dependent decrease; locomotor activity, highest dose group (C57BL/6 mice [3]; highest dose group): near complete reduction in activity |
| CCN(C)CCc1c[nH]c2cccc(O)c12 [Compound 6] | – | > 50 | – |
